Marks after values point to notes of the source that are not given here.
System: obese patients with hypertension
Assay: Randomized, double-blind, multicenter clinical study: add-on treatment in grade 3 obese hypertensive patients who did not respond to HCTZ 25 mg
Format: in vivo, human
Conditions: for BP control rate (in words): grade 3 obesity patients, comparison between treatment groups
Text: The effect of Aliskiren to treat hypertension in patients with obesity was investigated in a clinical study. […] [table]

[1] = Grade 3 obesity (BMI ≧ 40 kg/m^2), least squares mean ± SEM change from baseline at wk 12 endpoint (ANCOVA; intent-to-treat), add-on to HCTZ 25 mg, dose doubled after 4 weeks

SMILES | Change in DBP, mmHg [1] [mmHg] | Change in SBP, mmHg [1] [mmHg] | BP control rate (Grade 3 obesity (BMI ≧ 40 kg/m^2), patients reaching <140/90 mmHg, wk 12 endpoint, logistic regression model) [%**] | BP control rate (in words)
NS(=O)(=O)c1cc2c(cc1Cl)NCNS2(=O)=O [PBO/HCTZ, hydrochlorothiazide] | −5.9 ± 2.2 | −7.1 ± 3.2 | 16.7 | lower control rates
COCCCOc1cc(C[C@@H](C[C@H](N)[C@@H](O)C[C@H](C(=O)NCC(C)(C)C(N)=O)C(C)C)C(C)C)ccc1OC [aliskiren, 2(S),4(S),5(S),7(S)—N-(3-amino-2,2-dimethyl-3-oxopropyl)-2,7-di(1-methylethyl)-4-hydroxy-5-amino-8-[4-methoxy-3-(3-methoxy-propoxy)phenyl]-octanamide] | – | – | – | highly effective BP control

Source: patent US20100029775A1, “RENIN INHIBITORS FOR THE PREVENTION AND TREATMENT OF HYPERTENSION IN OBESE PATIENTS” (priority 2006, published 2010)
